Patent publication US20130041005A1, “PHARMACEUTICAL COMPOSITIONS COMPRISING NEUROPILIN INHIBITORS, AND THEIR USE FOR THE PREVENTION AND/OR TREATMENT OF ANGIOGENIC DISORDERS AND CANCERS” (TRAGEX PHARMA, priority 2011, published 2013)

Tests used:
NRP-1 = biological target: T1, NRP-1 (Homo sapiens, UniProt O14786); assay: ELISA inhibition of VEGF binding to NRP-1; conditions: compounds at 10 μM
T1 construct: purchased R&D Systems, UK 3870-N1-025
T1 sequence (O14786 22-644 isoform O14786-2 limits assumed): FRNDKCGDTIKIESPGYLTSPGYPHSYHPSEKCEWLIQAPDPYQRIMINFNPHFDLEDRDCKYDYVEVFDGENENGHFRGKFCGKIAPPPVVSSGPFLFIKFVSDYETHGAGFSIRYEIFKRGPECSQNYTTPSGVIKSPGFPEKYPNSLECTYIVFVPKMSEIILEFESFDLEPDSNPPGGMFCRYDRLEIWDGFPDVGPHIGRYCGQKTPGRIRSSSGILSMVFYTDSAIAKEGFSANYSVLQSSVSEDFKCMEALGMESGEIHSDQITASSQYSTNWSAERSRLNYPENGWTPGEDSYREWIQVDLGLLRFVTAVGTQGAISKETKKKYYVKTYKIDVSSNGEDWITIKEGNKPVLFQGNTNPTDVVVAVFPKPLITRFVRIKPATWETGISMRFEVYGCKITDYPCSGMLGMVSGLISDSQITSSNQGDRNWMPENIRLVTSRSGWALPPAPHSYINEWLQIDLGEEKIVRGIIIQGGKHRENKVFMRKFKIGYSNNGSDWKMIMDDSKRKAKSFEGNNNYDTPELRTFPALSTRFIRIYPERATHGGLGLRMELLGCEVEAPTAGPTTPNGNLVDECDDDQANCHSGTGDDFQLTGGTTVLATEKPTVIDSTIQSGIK
Procedure: Elisa test was performed covering a 96-well microplate (BD Biosciences, France, cat no 353046) surface with 100 μl of 1×PBS, pH 7.4 with Ca^2+ and Mg^2+, (Lonza, France, cat no 17-513F/12) solution containing 0.2 μg/ml of VEGF-R1 (R&D Systems, UK, cat no 321-FL-050/CF) or 2 μg/ml of NRP-1 (R&D Systems, UK, cat no 3870-N1-025) or NRP-2 (R&D Systems, UK, cat no […]). The plate was sealed and incubated overnight at 4° C. After 3 washes with 200 μl of 1×PBS 0.5% (v/v) Tween 20 (Sigma, France, cat no 34078) (Buffer A), the plate was blocked by adding 200 μl of 1×PBS with 0.5% (w/v) BSA (Eurobio, France, cat no GAUBSA01-65) and agitated at 37° C. for 2 h. After washing five times with Buffer A, 50 μl/well of the compounds of the invention at 10 μM were added for the specific signal and 50 μl/well for the non-specific and max binding signal and incubated at 37° C. for 1 hour, shacking. 50 μl of btVEGF (R&D Systems, UK, cat no NFVEO) at […] for NRP-1/4 μg/ml Heparin (Sigma, USA, cat no H3393-10KU), 300 μg/ml for NRP-2 and 100 μg/ml for VEGF-R1 solution was added to each well; the plate was sealed and incubated at 37° C. for 2 h, shacking. The last incubation was carried out, after five washes with Buffer A, adding 100 μl/well Streptavidin-Horseradish Peroxidase (Amersham, Switzerland, cat no RPN4401) diluted 1:8000 with buffer A. After 1 h shacking at 37° C. under obscurity, the plate was washed 5 times with buffer A and 100 μl of SuperSignal west picochemiluminescent substrate (Interchim, USA cat no 34078) were added. Luminescence was quantified with an EnVision™ 2101 Multilabel reader (Perkin Elmer, USA) and the data analyzed by Wallac Envision manager software. Signal is given as relative light units (RLU). Non-specific binding is defined as the signal measured in the absence of receptor coated on the microplate. The specific binding was calculated as the difference between total binding and non-specific binding. The percentage of inhibition was calculated as following: […]

HUVEC cells = assay: WST-1 proliferation assay, HUVEC; type: cell-based; conditions: FIG. 1 cell survival
Procedure: (§1) Cells were grown as subconfluent monolayer and cultured in 75 cm^2 flasks at 37° C., 5% CO2 in a humidified atmosphere, and medium was changed every two days. Only cells from passages 2-6 were used for the experiments.
(§2) All cells were detached with 3 ml of trypsin/EDTA (chelator of calcium and magnesium ions) (Lonza), incubated for 5 min at 37° C., and examined using a microscope to ensure that the cells were detached and floating. […] The supernatant was removed and the cell pellet resuspended in […] of culture medium. 50 μl of this solution were transferred in 20 μl of isotonic solution and the cells were counted by count cellular (Beckman Coulter).
(§3) The cell proliferation WST-1 assay is a colorimetric assay for the quantification of cell proliferation and viability, based on the enzymatic cleavage of the tetrazolium salt WST-1 added to the culture medium, to a water soluble colored formazan dye, detected by absorbance at 450 nm, by mitochondrial succinate-tetrazolium reductase in viable cells. An augmentation in enzyme activity will then lead to an increase in the amount of formazan dye formed, which directly correlates to the number of metabolically active cells in the culture.
(§4) After an incubation period of 72 h, at day 4, were prepared the […] medium with reagent WST-1 […] ([…]). The medium was removed from the 96 microplate and 200 μl of solution WST-1/medium were added for each well. The cells were incubated at 37° C. in a humidified atmosphere of 5% CO2 for 1 h 30 and the absorbance at 450-655 nm was measured by Microplate Manager 5.2 (Bio-Rad).

MDA-MB-231 = assay: WST-1 proliferation assay, MDA-MB-231; type: cell-based, Human; conditions: MDAMB-231 cell survival, FIGS. 1A-C
Procedure: as §1, §2, §3, §4

MDAMB-231 cells = assay: Adhesion test (crystal violet), MDA-MB-231; type: cell-based, Human; conditions: MDAMB-231, FIGS. 1A-C
Procedure: The crystal violet (hexamethyl pararosaniline chloride) is used as biologic colorant. It enters in the living cells, allowing the visualisation of the dark purple adherent living cells on the bottom of the plate.
After an incubation period of 72 h, the adherent cells were fixed with […] paraformaldehyde
3% for 15 min at room temperature. The medium and non-adherent cells were removed, and the cells were washed extensively with […] PBS (+Ca^2+ and +Mg^2+) (Lonza) and then stained with 50 μl of crystal violet 0.04% for 30 min at room temperature. The cells were washed gently 3 times with 100 μl PBS and were permeabilised with 100 μl triton 2% for 15 min. The microplate was stirred to obtain a homogenous solution and absorbance was quantified at 580 nm by Microplate Manager 5.2.
The percentage of inhibition is calculated as follow: % inhibition=100−[(DOsample/DOcontrol)*100].

## O=C(NC(=S)Nc1cccc(-c2nc3ccccc3[nH]2)c1)c1ccc2c(c1)OCO2 [Compound 3, N-[3-(1H-benzimidazol-2-yl)phenyl]-N′-(1,3-benzodioxol-5-ylcarbonyl)thiourea]
NRP-1
  inhibition at 10 µM: 46 ± 3%
HUVEC cells
  cytotoxicity for endothelial cell lines (HUVEC cells) in culture: cytotoxic
MDA-MB-231
  cytotoxicity for cancer cells in vitro: cytotoxic
MDAMB-231 cells
  inhibition of adhesion of cancer cells in culture: inhibited the adhesion
